Eight molecules from ChEMBL document CHEMBL1201862, “PubChem BioAssay data set” (2004) can be followed below.

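Exposure lasted 48 hours, with cells grown in 96-well plates and compounds tested at five concentrations. GI50: concentration for 50% inhibition of growth.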 Activity calls are given as the source filed them. Rule as the data show it: active = GI50 up to about 1.1 µM and inactive = higher. Non-standard residues stand in square brackets, D forms with d. Residues, ends and D or L forms follow the SMILES beside them.

Some test systems named below: A498; CAKI-1; HCT-116; HCT-15; IGROV-1; MOLT-4; NCI-H460; NCI-H522; RPMI-8226; SF-295; SF-539; SK-MEL-2; SK-OV-3; SNB-75; SW-620; U-251; UACC-257; HCC 2998.
Holding throughout (test): growth of human tumour cells (NCI), 48 h

As to `CC(C)=CCCC(C)[C@H]1CC(O)C2(C)C3=CCC4C(C)(C)[C@@H](O)CC[C@]4(C)C3=CC[C@]12C` (some centres undefined), the GI50 in the experiment on A498 is 3.98 µM (inactive); in the experiment on CAKI-1 it was 8.36 µM (inactive); in the experiment on HCT-116, 2.4 µM (inactive); in the experiment with HCT-15 it was 5.01 µM; in the experiment with IGROV-1 it was 9.29 µM (inactive); with MOLT-4, 15.2 µM (inactive). In addition, the GI50 with NCI-H460 was 2.24 µM (inactive); with NCI-H522 it was 0.401 µM (active); in the experiment with RPMI-8226 it was 3.27 µM (inactive); in the experiment with SF-295, 2.24 µM (inactive); with SF-539, 2.09 µM (inactive); with SK-MEL-2, 23.3 µM (inactive). Besides, the GI50 was 7.82 µM (inactive) in the experiment on SK-OV-3; 7.48 µM (inactive) with SNB-75; 3.89 µM (inactive) in the experiment with SW-620; 2.28 µM (inactive) in the experiment on U-251; 22.5 µM (inactive) in the experiment with UACC-257.
For `COc1ccc2c(c1)[n+]([O-])c(-c1c(Cl)cccc1Cl)c(N)[n+]2[O-]`, the GI50 was > 100 µM (inactive) with A498; 50.5 µM (inactive) with CAKI-1; 72.3 µM (inactive) with HCC 2998; 31.8 µM with HCT-15; 47.4 µM (inactive) in the experiment on IGROV-1; 75.3 µM (inactive) in the experiment on MOLT-4. The GI50 was 44.4 µM (inactive) with NCI-H460; > 10 µM (inactive) with NCI-H522; 80.4 µM (inactive) in the experiment with RPMI-8226; 61 µM (inactive) in the experiment with SF-295; 26 µM (inactive) in the experiment on SK-MEL-2; > 100 µM (inactive) in the experiment with SK-OV-3. In addition, the GI50 is > 100 µM (inactive) in the experiment on SNB-75, 47.1 µM (inactive) in the experiment on SW-620, 37.9 µM (inactive) with U-251 and 23.4 µM (inactive) in the experiment with UACC-257.
On to `CN(/N=C/c1cccc2cccnc12)c1ccccc1`, for which the GI50 was > 100 µM (inactive) in the experiment with A498; 7.85 µM (inactive) in the experiment with CAKI-1; 86.1 µM (inactive) in the experiment on HCC 2998; greater than 100 µM in the experiment with HCT-15; 73.6 µM (inactive) in the experiment on IGROV-1; > 100 µM (inactive) in the experiment on MOLT-4. Also, the GI50 with NCI-H460 is 79.6 µM (inactive); in the experiment on NCI-H522 it was > 100 µM (inactive); in the experiment on RPMI-8226 it was > 100 µM (inactive); in the experiment on SF-295, 99.3 µM (inactive); in the experiment with SF-539 it was 37.2 µM (inactive); in the experiment with SK-MEL-2 it was 41.1 µM (inactive). The GI50 in the experiment with SK-OV-3 was > 100 µM (inactive); with SNB-75, 20.4 µM (inactive); in the experiment with SW-620, > 100 µM (inactive); in the experiment with U-251 it was > 100 µM (inactive); in the experiment on UACC-257, 52 µM (inactive).
`CC(C)C[C@H](NC(=O)[C@H](CC(C)C)NC(=O)[C@@H](Cc1c[nH]c2ccccc12)NC(=O)[C@H](Cc1ccccc1)NC(=O)[C@@H](Cc1c[nH]c2ccccc12)NC(=O)[C@H](CCC(N)=O)NC(=O)[C@H](CCC(N)=O)NC(=O)[C@H]1CCCN1C(=O)[C@@H](N)CCCCN)C(N)=O` (H-K[dP]QQ[dW]F[dW]LL-NH2): the GI50 with A498 was > 100 µM (inactive); in the experiment with HCC 2998, > 100 µM (inactive); in the experiment with HCT-116 it was > 100 µM (inactive); with HCT-15, greater than 100 µM; with IGROV-1, > 100 µM (inactive); with MOLT-4, > 100 µM (inactive). Also, the GI50 in the experiment on NCI-H460, in the experiment with NCI-H522, with RPMI-8226, in the experiment with SF-295, with SF-539 and in the experiment on SK-MEL-2 was > 100 µM (inactive) each time. Besides, the GI50 in the experiment on SK-OV-3, in the experiment on SNB-75, in the experiment on SW-620, with U-251 and with UACC-257 was > 100 µM (inactive) each time.
For the molecule `O=C1NC(=O)C2C(=O)NC(=O)C1C2(c1ccccc1)c1ccc(Cl)cc1` (centres undefined), the GI50 with A498 was > 100 µM (inactive); with CAKI-1, > 100 µM (inactive); with HCC 2998, > 100 µM (inactive); in the experiment with HCT-15, greater than 100 µM; in the experiment on IGROV-1, > 100 µM (inactive); with MOLT-4, > 100 µM (inactive). Besides, the GI50 with NCI-H460, with NCI-H522, in the experiment with RPMI-8226, in the experiment on SF-295, with SF-539 and in the experiment with SK-MEL-2 was > 100 µM (inactive) in each case. The GI50 in the experiment on SK-OV-3, in the experiment with SNB-75, in the experiment on SW-620 and with UACC-257 was > 100 µM (inactive) throughout.
As for `CC(=O)OCC1OC(n2cc([N+](=O)[O-])c(=O)[nH]c2=O)C(OC(C)=O)C(OC(C)=O)C1OC(C)=O` (centres undefined), the GI50 was > 100 µM (inactive) in the experiment with A498; > 100 µM (inactive) with CAKI-1; > 100 µM (inactive) with HCC 2998; > 100 µM (inactive) in the experiment with HCT-116; greater than 100 µM with HCT-15; > 100 µM (inactive) in the experiment on IGROV-1. Also, the GI50 in the experiment with MOLT-4, with NCI-H460, in the experiment with NCI-H522, in the experiment on RPMI-8226, in the experiment with SF-295 and in the experiment with SK-MEL-2 was > 100 µM (inactive) in each case. Further, the GI50 was > 100 µM (inactive) in the experiment with SK-OV-3; 54.6 µM (inactive) with SNB-75; > 100 µM (inactive) with SW-620; > 100 µM (inactive) with U-251; > 100 µM (inactive) with UACC-257.
As for `CN1Cc2c(nc(-c3ccccc3)c[n+]2[O-])N(C)C1`, the GI50 with A498 is > 100 µM (inactive); in the experiment with CAKI-1 it was > 100 µM (inactive); in the experiment on HCC 2998, > 100 µM (inactive); in the experiment with HCT-15 it was greater than 100 µM; with IGROV-1 it was > 100 µM (inactive); with MOLT-4, > 100 µM (inactive). The GI50 in the experiment with NCI-H460, in the experiment with NCI-H522, in the experiment on RPMI-8226, with SF-295, in the experiment with SF-539 and in the experiment on SK-MEL-2 was > 100 µM (inactive) each time. The GI50 in the experiment on SK-OV-3, in the experiment with SNB-75, in the experiment with SW-620, with U-251 and in the experiment on UACC-257 was > 100 µM (inactive) throughout.
Regarding `CC1=CC(C)(C)N=C2SC(c3ccc(N)cc3)=NN12`, the GI50 in the experiment on A498 is 63.4 µM (inactive); in the experiment with CAKI-1 it was 61.8 µM (inactive); in the experiment with HCC 2998, > 100 µM (inactive); with HCT-116 it was 41 µM (inactive); in the experiment on HCT-15 it was 31.6 µM; with IGROV-1, > 100 µM (inactive). The GI50 in the experiment with MOLT-4 was 42.2 µM (inactive); with NCI-H460, 52.4 µM (inactive); with NCI-H522 it was 58.6 µM (inactive); with RPMI-8226 it was 21.1 µM (inactive); in the experiment on SF-295 it was > 91.8 µM (inactive); in the experiment on SF-539 it was > 100 µM (inactive). The GI50 in the experiment with SK-OV-3 is > 100 µM (inactive); with SNB-75 it was > 52.5 µM (inactive); with SW-620, > 41 µM (inactive); with U-251, 59.8 µM (inactive); with UACC-257 it was > 94 µM (inactive).
